Experimental data from ChEMBL document CHEMBL1134874, “Identification of a novel partial inhibitor of dopamine transporter among 4-substituted 2-phenylquinazolines” (Bioorg Med Chem Lett, 2002).

What was measured:
[1] = target: Sodium-dependent dopamine transporter (Rattus norvegicus, UniProt P23977); assay: Displacement of [125I]RTI-55 from Dopamine transporter of rat caudate membranes; format: cell membranes, Membrane
[2] = target: Sodium-dependent serotonin transporter (Rattus norvegicus, UniProt P31652); assay: Inhibition of [125I]RTI-55 binding to Serotonin transporter of rat caudate membranes; format: cell membranes, Membrane
Sodium-dependent serotonin transporter, sequence (P31652 whole entry): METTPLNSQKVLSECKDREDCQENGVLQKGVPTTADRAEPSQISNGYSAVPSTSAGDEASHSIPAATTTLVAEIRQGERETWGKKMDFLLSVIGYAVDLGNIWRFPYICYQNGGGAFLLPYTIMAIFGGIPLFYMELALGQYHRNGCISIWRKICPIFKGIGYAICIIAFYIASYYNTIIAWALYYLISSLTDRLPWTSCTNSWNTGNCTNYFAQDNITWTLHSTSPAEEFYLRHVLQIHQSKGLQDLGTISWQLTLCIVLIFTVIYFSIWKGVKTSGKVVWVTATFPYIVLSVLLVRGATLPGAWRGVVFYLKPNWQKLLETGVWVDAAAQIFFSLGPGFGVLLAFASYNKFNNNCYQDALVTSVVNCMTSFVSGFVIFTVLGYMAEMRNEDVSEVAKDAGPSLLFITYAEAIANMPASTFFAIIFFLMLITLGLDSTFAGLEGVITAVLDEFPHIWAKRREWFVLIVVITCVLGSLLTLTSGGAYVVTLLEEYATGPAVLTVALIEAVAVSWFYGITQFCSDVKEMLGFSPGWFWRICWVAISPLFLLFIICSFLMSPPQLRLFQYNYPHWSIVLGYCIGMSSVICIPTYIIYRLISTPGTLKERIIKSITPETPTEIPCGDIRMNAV

Sodium-dependent dopamine transporter, sequence (P23977 whole entry): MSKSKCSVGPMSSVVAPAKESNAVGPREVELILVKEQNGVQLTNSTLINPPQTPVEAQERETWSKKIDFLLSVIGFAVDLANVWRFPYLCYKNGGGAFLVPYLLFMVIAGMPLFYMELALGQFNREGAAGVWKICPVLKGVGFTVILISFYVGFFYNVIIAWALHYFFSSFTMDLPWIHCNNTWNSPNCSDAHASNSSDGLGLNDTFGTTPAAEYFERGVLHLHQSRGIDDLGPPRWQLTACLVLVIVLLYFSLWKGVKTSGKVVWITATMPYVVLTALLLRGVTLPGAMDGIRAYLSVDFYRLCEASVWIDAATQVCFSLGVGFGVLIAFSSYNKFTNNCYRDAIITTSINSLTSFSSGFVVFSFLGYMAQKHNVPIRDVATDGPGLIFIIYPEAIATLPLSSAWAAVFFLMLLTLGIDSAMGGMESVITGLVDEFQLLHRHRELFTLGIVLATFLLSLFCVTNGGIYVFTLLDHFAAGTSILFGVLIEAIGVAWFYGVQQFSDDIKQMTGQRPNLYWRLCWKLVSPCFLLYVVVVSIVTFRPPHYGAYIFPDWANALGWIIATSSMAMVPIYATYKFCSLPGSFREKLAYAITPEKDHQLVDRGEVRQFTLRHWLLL

Row | SMILES | Ki [1] [µM] | Ki [2] [µM]
1 | CN1C2CCC1CC(Oc1nc(-c3ccccc3)nc3ccccc13)C2 (stereo not drawn) | 5.1 | 5.1
2 | C[C@H](Nc1nc(-c2ccccc2)nc2ccccc12)c1ccccc1 | 1.8 | > 10
3 | c1ccc(-c2nc(NCCC(c3ccccc3)c3ccccc3)c3ccccc3n2)cc1 | > 10 | > 10
4 | c1ccc(-c2nc(NC(c3ccccc3)c3ccccc3)c3ccccc3n2)cc1 | 0.53 | > 10
5 | c1ccc(-c2nc(NCC(c3ccccc3)c3ccccc3)c3ccccc3n2)cc1 | 5.4 | > 10
6 | c1ccc(-c2nc(SC(c3ccccc3)c3ccccc3)c3ccccc3n2)cc1 | > 10 | > 10
7 | c1ccc(CNc2nc(-c3ccccc3)nc3ccccc23)cc1 | 7.9 | > 10
8 | CN1CCC(Oc2nc(-c3ccccc3)nc3ccccc23)CC1 | 9.1 | > 10

Next, values leading:

Row | Ki [1] [µM] | Ki [2] [µM] | SMILES
9 |  | > 10 | CN(C)CCCOc1nc(-c2ccccc2)nc2ccccc12
10 | 6.1 | > 10 | C[C@@H](Nc1nc(-c2ccccc2)nc2ccccc12)c1ccccc1
11 | 6.1 | 9.6 | CN(C)CCCSc1nc(-c2ccccc2)nc2ccccc12
12 | > 10 | > 10 | CN(C)CCCNc1nc(-c2ccccc2)nc2ccccc12
